# Values quoted from earlier work as cited in patent US11707272B2, “Packaged antimicrobial medical device having improved shelf life and method of preparing same” (ETHICON, LLC, priority 2012, dated 2023).
# Test system: S. aureus
# Details: measured in a suitable growth medium; as described by Bhargava, H. et al, American Journal of Infection Control, June 1996
structure (smiles),measurement,value
"Oc1cc(Cl)ccc1Oc1ccc(Cl)cc1Cl [2,4,4′-trichloro-2′-hydroxydiphenyl ether]",minimum inhibitory concentration (MIC) against S. aureus,0.01 ppm
